Reference: US10399940B2, “Substituted pyrrolidines and methods of use” (AbbVie S.à.r.l., priority 2016, dated 2019)
Like-named read-outs stand apart in the source and are kept apart here.

Biological target: T1, F508delCFTR (Homo sapiens, UniProt P13569, DEL508-508)
T1 construct: expressed in transfected cells; host or cells: CFBE41o- (human lung derived epithelial cell line), doxycycline-inducible expression
Experiment: Cell Surface Expression-Horse Radish Peroxidase (CSE-HRP) assay
Assay type: cell-based
Conditions: CFBE41o-F508delCFTR-HRP cells; for Maximum % activity (with co-corrector): with co-corrector (2 μM); for Maximum % activity (with co-corrector) / Maximum % activity (without co-corrector): normalized to on-plate positive control, highest concentration 20 μM
How it was run: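 CFBE41o- cells expressed F508delCFTR with HRP in the fourth exofacial loop, induced by 0.5 μg/mL doxycycline for 72 h at 37 °C. Compounds alone or with 2 μM co-corrector ran 18–24 h at 33 °C, 8-point 3-fold from 20 μM. Washed-cell luminol luminescence was normalized to DMSO and positive control, fitted sigmoidally for EC50 (three plates).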

[1] = test compound without co-corrector, 18-24 hours at 33° C., read-out: EC50 (without co-corrector)
[2] = with co-corrector (2 μM of 3-[(2R,4R)-4-({[1-(2,2-difluoro-1,3-benzodioxol-5-yl)cyclopropyl]carbonyl}amino)-7-methoxy-3,4-dihydro-2H-chromen-2-yl]benzoic acid), read-out: EC50 (with co-corrector)

T1 sequence (P13569 with tags, fused parts or gaps DEL508-508): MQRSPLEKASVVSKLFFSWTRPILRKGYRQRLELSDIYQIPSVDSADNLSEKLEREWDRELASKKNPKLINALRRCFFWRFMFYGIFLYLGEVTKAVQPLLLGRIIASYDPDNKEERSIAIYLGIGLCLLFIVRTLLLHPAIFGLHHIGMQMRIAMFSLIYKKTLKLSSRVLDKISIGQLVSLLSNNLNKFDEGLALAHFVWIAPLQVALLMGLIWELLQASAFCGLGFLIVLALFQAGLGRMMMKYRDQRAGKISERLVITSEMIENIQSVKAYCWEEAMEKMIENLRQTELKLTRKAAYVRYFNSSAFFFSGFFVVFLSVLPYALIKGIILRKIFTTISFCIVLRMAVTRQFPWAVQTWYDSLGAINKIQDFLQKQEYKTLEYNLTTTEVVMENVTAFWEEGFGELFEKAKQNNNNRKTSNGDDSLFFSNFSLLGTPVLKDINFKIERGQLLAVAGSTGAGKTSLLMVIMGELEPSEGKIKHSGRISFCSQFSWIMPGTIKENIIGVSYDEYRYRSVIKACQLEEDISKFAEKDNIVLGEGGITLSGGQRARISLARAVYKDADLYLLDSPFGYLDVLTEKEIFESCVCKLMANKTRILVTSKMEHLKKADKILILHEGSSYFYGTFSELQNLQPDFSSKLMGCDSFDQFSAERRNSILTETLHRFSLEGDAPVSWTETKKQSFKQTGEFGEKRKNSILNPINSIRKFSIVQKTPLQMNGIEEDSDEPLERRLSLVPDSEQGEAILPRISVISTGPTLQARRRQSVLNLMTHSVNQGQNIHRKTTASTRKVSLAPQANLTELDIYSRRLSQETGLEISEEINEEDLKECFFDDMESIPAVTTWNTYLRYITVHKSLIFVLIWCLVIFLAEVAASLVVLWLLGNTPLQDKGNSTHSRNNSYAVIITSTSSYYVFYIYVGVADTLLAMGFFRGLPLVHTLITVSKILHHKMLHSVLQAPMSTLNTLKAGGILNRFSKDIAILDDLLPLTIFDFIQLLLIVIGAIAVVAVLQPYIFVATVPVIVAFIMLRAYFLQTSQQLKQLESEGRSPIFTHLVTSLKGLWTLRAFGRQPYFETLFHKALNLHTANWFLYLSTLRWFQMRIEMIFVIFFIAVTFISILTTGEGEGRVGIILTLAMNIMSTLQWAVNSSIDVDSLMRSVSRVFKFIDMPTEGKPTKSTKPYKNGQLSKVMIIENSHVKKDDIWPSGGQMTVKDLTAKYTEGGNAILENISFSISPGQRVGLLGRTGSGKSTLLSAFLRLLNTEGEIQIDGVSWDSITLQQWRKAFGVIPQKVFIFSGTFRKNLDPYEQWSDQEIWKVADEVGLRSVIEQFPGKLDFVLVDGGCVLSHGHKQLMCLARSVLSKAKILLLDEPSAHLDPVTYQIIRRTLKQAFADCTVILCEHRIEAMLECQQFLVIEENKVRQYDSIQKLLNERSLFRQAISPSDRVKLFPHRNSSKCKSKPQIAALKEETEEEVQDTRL

SMILES | EC50 [1] | EC50 [2] | Maximum % activity (with co-corrector) | Maximum % activity (without co-corrector)
COc1ncc(C(F)(F)F)cc1CO[C@H]1[C@H](C(C)(C)C)[C@@H](C(=O)O)N(C(=O)[C@@H]2CCCCO2)[C@H]1c1ccccc1-c1cccc(N(C)C)c1 [Example 194, (2S,3R,4S,5S)-3-tert-butyl-5-[3′-(dimethylamino) [1,1′-biphenyl]-2-yl]-4-{[2-methoxy-5-(trifluoromethyl)pyridin-3-yl]methoxy}-1-[(2S)-oxane-2-carbonyl]pyrrolidine-2-carboxylic acid] | 1000 to 10000 nM | < 1000 nM | +++ (≥350) | +++ (≥200)
COc1ncc(C(F)(F)F)cc1CO[C@H]1[C@H](C(C)(C)C)[C@@H](C(=O)O)N(C(=O)[C@@H]2CCCCO2)[C@H]1c1ccccc1-c1ccccc1C [Example 195, (2S,3R,4S,5S)-3-tert-butyl-4-{[2-methoxy-5-(trifluoromethyl)pyridin-3-yl]methoxy}-5-(2′-methyl[1,1′-biphenyl]-2-yl)-1-[(2S)-oxane-2-carbonyl]pyrrolidine-2-carboxylic acid] | 1000 to 10000 nM | 1000 to 10000 nM | +++ (≥350) | +++ (≥200)
COc1ncc(C(F)(F)F)cc1CO[C@H]1[C@H](C(C)(C)C)[C@@H](C(=O)O)N(C(=O)[C@@H]2CCCCO2)[C@H]1c1ccccc1-c1ccn(C)c1 [Example 199, (2S,3R,4S,5S)-3-tert-butyl-4-{[2-methoxy-5-(trifluoromethyl)pyridin-3-yl]methoxy}-5-[2-(1-methyl-1H-pyrrol-3-yl)phenyl]-1-[(2S)-oxane-2-carbonyl]pyrrolidine-2-carboxylic acid] | 1000 to 10000 nM | 1000 to 10000 nM | +++ (≥350) | +++ (≥200)
COc1ncc(C(F)(F)F)cc1CO[C@H]1[C@H](C(C)(C)C)[C@@H](C(=O)O)N(C(=O)[C@@H]2CCCCO2)[C@H]1c1ccccc1-c1ccccc1Cl [Example 200, (2S,3R,4S,5S)-3-tert-butyl-5-(2′-chloro[1,1′-biphenyl]-2-yl)-4-{[2-methoxy-5-(trifluoromethyl)pyridin-3-yl]methoxy}-1-[(2S)-oxane-2-carbonyl]pyrrolidine-2-carboxylic acid] | 1000 to 10000 nM | < 1000 nM | +++ (≥350) | +++ (≥200)

Further lines, results first:

EC50 [1] | EC50 [2] | Maximum % activity (with co-corrector) | Maximum % activity (without co-corrector) | SMILES
1000 to 10000 nM | 1000 to 10000 nM | +++ (≥350) | ++ (≥100 and <200) | COc1ncc(C(F)(F)F)cc1CO[C@H]1[C@H](C(C)(C)C)[C@@H](C(=O)O)N(C(=O)[C@@H]2CCCCO2)[C@H]1c1ccccc1-c1ccncc1 [Example 196, (2S,3R,4S,5S)-3-tert-butyl-4-{[2-methoxy-5-(trifluoromethyl)pyridin-3-yl]methoxy}-1-[(2S)-oxane-2-carbonyl]-5-[2-(pyridin-4-yl)phenyl]pyrrolidine-2-carboxylic acid]
1000 to 10000 nM | 1000 to 10000 nM | ++ (≥150 and <350) | + (<100) | COc1ncc(C(F)(F)F)cc1CO[C@H]1[C@H](C(C)(C)C)[C@@H](C(=O)O)N(C(=O)[C@@H]2CCCCO2)[C@H]1c1ccccc1-c1cncnc1 [Example 197, (2S,3R,4S,5S)-3-tert-butyl-4-{[2-methoxy-5-(trifluoromethyl)pyridin-3-yl]methoxy}-1-[(2S)-oxane-2-carbonyl]-5-[2-(pyrimidin-5-yl)phenyl]pyrrolidine-2-carboxylic acid]
1000 to 10000 nM | 1000 to 10000 nM | +++ (≥350) | +++ (≥200) | COc1ncc(C(F)(F)F)cc1CO[C@H]1[C@H](C(C)(C)C)[C@@H](C(=O)O)N(C(=O)[C@@H]2CCCCO2)[C@H]1c1ccccc1-c1ccoc1 [Example 198, (2S,3R,4S,5S)-3-tert-butyl-5-[2-(furan-3-yl)phenyl]-4-{[2-methoxy-5-(trifluoromethyl)pyridin-3-yl]methoxy}-1-[(2S)-oxane-2-carbonyl]pyrrolidine-2-carboxylic acid]
